Tests used:
mPGES-1 [1] = molecular target: T1, mPGES-1 (Homo sapiens, UniProt O14684); experiment: mPGES-1 enzyme assay (HTRF detection of PGE2); type: biochemical; parameters: made in house; host or cells: Rosetta E. coli (membrane/microsome fraction)
T1 sequence (O14684 1-152): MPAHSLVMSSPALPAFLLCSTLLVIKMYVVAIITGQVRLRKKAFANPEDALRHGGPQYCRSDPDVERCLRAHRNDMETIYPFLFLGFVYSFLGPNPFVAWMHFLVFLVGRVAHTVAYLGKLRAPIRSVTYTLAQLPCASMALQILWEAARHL
Method: Microsomes from Rosetta E. coli bacteria expressing recombinant human mPGES-1 can be derived as described below:
Inoculate 5 ml LB with Ampicilin (50 μg/ml) and Chloramphenicol (34 μg/ml) with bacteria from freeze culture. Incubate 8 h at 37° C. with 200 rpm. Thereafter, inoculate 500-1000 ml LB containing Amp and Chloro with the 5 ml on culture and grow to OD640 of 0.8-1.0. Chill the culture to +4° C. before induction. Induce the culture with IPTG at a final concentration of 400 μM. Express the protein at room temp 18-23° C. with 200 rpm shaking over night.
The following steps can be performed on the following day: • 1. Spin down the cells in 250 ml centrifuge flasks for 15 min at 7000 rpm (Beckmann Coulte Avanti J-E centrifuge) • 2. Dissolve the pellet from 250 ml culture in 12.5 ml homogenization buffer • 3. (15 mM Tris-HCL pH8, 1 mM EDTA pH8, […], 2.5 mM GSH, 1 Tablet Protease inhibitor per 50 ml buffer) • 4. Disintegrate the cells by sonication, 5×10 seconds at 48% amplitude of a 750 W sonifier • 5. Add 2.5 ml MgCl2 (100 mM) and DNase 12.5 μl (0.8 mg/ml) and incubate on ice for 30 min • 6. Spin down the bacteria debris and save the supernatant, 7000 rpm for 15 min • 7. Isolate the protein containing membranes in the supernatant by ultracentrifugation 120000×g for 2 hour at 4° C. (Sorvall T880 rotor). • 8. Discard the supernatant and dissolve the pellet in 20 mM Potassium phosphate buffer pH 7.4 (KH2PO4 and K2HPO4) buffer by sonication (5×10 s, 30% of a 50 W sonifier) and aliquot the enzyme and store aliquots at −80° C.
Before each experiment is performed an aliquot of the enzyme is thawed and it can then be dissolved in 0.1 M Potassium phosphate buffer pH7.4 (KH2PO4 and K2HPO4) buffer containing 2.5 mM GSH.
The aim of this assay is the determine the affinity of a test compound for the mPGES-1 enzyme.
47 μl of recombinant human mPGES-1 (˜0.5 μg protein/well) containing microsomal suspension in a buffer containing GSH, (2.5 mmol/L L-Glutathione reduced, dissolved in 0.1 mol/L Phosphat Buffer pH 7.4) is dispensed in a 384-well plate and thereafter 1 μl of the test compound(s) is/are added and incubated for 25 minutes at room temperature. The enzyme reaction is started by the addition of 2 μl PGH2 (final conc. 2 μM) dissolved in water-free Diglyme. After 60 seconds the reaction is terminated by addition of a stop solution containing FeCl2 (10 μL 0.074 mol/l FeCl2). The samples are diluted between 1:25 in PBS (Phosphate Buffered Saline). 10 μl of the diluted samples are transferred to 384-well low volume plate. In order to quantify the amount of PGE2 that has been formed, a homogenous time resolved fluorescent (HTRF) detecting of PGE2 has been performed using a commercially available kit from Cisbio according to the manufactures recommendation. This HTRF-based assay has been described in detail (see: Goedken et al., J Biomol Screen, 2008, 13(7), 619-625). Briefly, the diluted samples are mixed with 5 μl PGE2-d2 conjungate and 5 μl anti-PGE2 cryptate conjungate. After an incubation period of the plates over night, the fluorescence is measured by the use of an appropriate microplate reader.
The fluorescence of Europium cryptate (maxex=307 nm, maxem=620 nm) and d2-PGE2 (maxex=620 nm, maxem=665 nm) are measured.
The extent of the specific HTRF is measured as a ratio of the emission intensity at 665 nm vs. that at 620 nm at an excitation puls of 320 nm. The quantification plate contains also wells with different concentrations of PGE2 as calibration curve for the calculation of the PGE2 concentrations from the HTRF ratio values.
From all mPGES enzyme assay the background is subtracted and the IC50 is calculated over a nonlinear regression with conventional software.

mPGES-1 [2] = molecular target: T1, mPGES-1; experiment: A549 cell-based assay (PGE2 formation, IL-1β stimulated, 50% human serum); parameters: host or cells: A549 cells
Method: Although the enzymatic assay is a high throughput assay the disadvantage is that it uses a recombinant protein which is not in its natural environment. Accordingly a cellular assay was established in which a cell line of human origin (A549) expressing the mPGES-1 protein was used. In addition in order to mimic the situation in humans in which compounds can be bound to plasma proteins 50% human serum is added in the assay. By having the combination of testing mPGES-1 in a cellular environment and the presence of 50% human serum this assay has a higher relevance to judge the therapeutic potential of a mPGES-inhibitor than the pure enzyme assay.
A549 cells (ATCC: CCL-185) are grown to about 90% confluence in F-12K Nutrient Mixture (Kaighn's Mod. Gibco) containing 10% FBS in a humified incubator at 37° C. and 5% CO2. Cells were detached using Trypsin-EDTA. A549 cells were seeded in a 384-well collagene plate at a density of 7000 cells/well (50 μl) in F-12 medium containing 1% Penicillin-Streptomycin and 50% human serum. The cells were allowed to attach for 3-4 h. After that the cells were incubated for 20-24 h in F-12k medium supplemented with 50% human serum, 1% Penicillin-Streptomycin and containing IL-1β at a final concentration of 5 ng/ml as well as 10 nM arachidonic acid in the presence of a vehicle or a test compound. The total volume is 100 μl.
Concentrations of PGE2 in the cell free medium (10 μl) were measured using a commercially available HTRF kit from Cisbio (as described above). The PGE2 formation in the absence of test compound was taken as 100%.
IC50 values were derived from at 6-8 point titrations using conventional software.

[3] = recombinant human mPGES-1 microsomes, PGH2 2 μM, Table A, read-out: mPGES-1 inhibitory effect, IC50, enzyme assay
[4] = A549 cells, IL-1β 5 ng/ml, 20-24 h, Table B, read-out: mPGES-1 inhibitory effect, IC50, cell assay
[5] = Table C comparison of enzym and cell IC50, read-out: Enzym IC50
[6] = Table C comparison of enzym and cell IC50, A549 cells, read-out: Cell IC50

| Compound | IC50 (mPGES-1 [1]; [3]) | melting point | IC50 (mPGES-1 [2]; [4]) | IC50 (mPGES-1 [1]; [5]) | IC50 (mPGES-1 [2]; [6]) |
| --- | --- | --- | --- | --- | --- |
| CC(C)(C)C(=O)NCc1ccc(Cl)c(Nc2nc3cc(C(=O)N[C@H]4CC[C@H](C(F)(F)F)CC4)c(N4CCC(C(F)(F)F)CC4)nc3n2C2CC2)c1Cl [Example 26] | 4 nM | 198 to 200 °C | 7 nM | – | – |
| CC(C)(C)C(=O)NCc1ccc(Cl)c(Nc2nc3cc(C(=O)N[C@H]4CC[C@H](C(F)(F)F)CC4)c(N4CCC(C(F)(F)F)CC4)nc3n2CC(F)F)c1Cl [Example 27] | 3 nM | 172 to 174 °C | 2 nM | – | – |
| CC(C)(C)C(=O)NCc1ccc(Cl)c(Nc2nc3cc(C(=O)N[C@H]4CC[C@H](C(F)(F)F)CC4)c(N4CCC(C(F)(F)F)CC4)nc3n2CC(N)=O)c1Cl [Example 28] | 1 nM | 189 to 191 °C | 3 nM | – | – |
| Cn1c(Nc2c(Cl)ccc(CNC(=O)C(C)(C)C)c2Cl)nc2cc(C(=O)N[C@H]3CC[C@H](C(F)(F)F)CC3)c(N3CCC(C(F)(F)F)CC3)nc21 [Example 30, N-(trans-4-Trifluoromethyl-cyclohexyl)-2-{2,6-dichloro-3-[(2,2-dimethyl-propionylamino)-methyl]-phenylamino}-5-[4-trifluoromethyl-piperidinyl]-3-methyl-3H-imidazo[4,5-b]pyridine-6-carboxamide] | 3 nM | 185 to 186 °C | 1 nM | – | – |
| Cn1c(Nc2c(Cl)ccc(CNC(=O)C(C)(C)C)c2Cl)nc2cc(C(=O)NCC3CC3)c(N3CCC(C(F)(F)F)CC3)nc21 [Example 46] | < 1 nM | – | 8 nM | – | – |
| O=C(N[C@H]1CC[C@H](C(F)(F)F)CC1)c1cc2nc(Nc3c(Cl)cc(F)cc3Cl)[nH]c2nc1OCC(F)(F)F [reference compound] | – | – | – | 2 nM | 43 nM |
| Cn1c(Nc2c(Cl)cc(F)cc2Cl)nc2cc(C(=O)N[C@H]3CC[C@H](C(F)(F)F)CC3)c(OCC(F)F)nc21 [reference compound] | – | – | – | 4 nM | 161 nM |
| Cn1c(Nc2cc(CNC(=O)C(C)(C)C)ccc2Cl)nc2cc(C(=O)N[C@H]3CC[C@H](C(F)(F)F)CC3)c(OCC(F)(F)F)cc21 [reference compound] | – | – | – | 8 nM | 89 nM |
| Cn1c(Nc2c(F)cccc2Cl)nc2cc(C(=O)Nc3ccc(Br)cc3)c(OCC(F)F)nc21 [reference compound] | – | – | – | 2 nM | 72 nM |
| Cn1c(Nc2cc(CNC(=O)C3(C(F)(F)F)CC3)ccc2Cl)nc2cc(C(=O)Nc3ccc(F)c(Cl)c3)c(OCC(F)F)cc21 [reference compound] | – | – | – | 1 nM | 8 nM |

Source: patent US8486968B2, “Compounds” (Boehringer Ingelheim International GmbH, priority 2010, dated 2013)
